Our source for the TGI and GI50 values is PubChem BioAssay (NCI).

Structures are written as SMILES. Several values for one entry are separate records, joined by “and”; a condition that tells them apart may be missing. Equal entries are not always repeated.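 Five concentrations, 48 hours, 96-well plates. Here, GI50 denotes the concentration required for 50% inhibition of growth. TGI is the concentration that stops growth completely.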

Assay in all cases: NCI-60 cell line screen, 48 h
Assay [1] concerns HOP-92 NSCLC.
Assay [2] concerns U251 CNS.
For assay [3], the system named is NCI-H460 lung.
The subject of assay [4] is MDA-MB-231 breast.
Assay [5] concerns OVCAR-4 ovarian.
In assay [6] the test system is MALME-3M melanoma.
In assay [7] the test system is DU-145 prostate.
The subject of assay [8] is OVCAR-3 ovarian.
Assay [9] concerns UACC-62 melanoma.
For assay [10], the system named is UO-31 renal.

As for `CC[C@@H](O)C[C@H]1CCC[C@@]2(C[C@@H]3OC(=O)/C=C/[C@@](C)(O)[C@@H](O)[C@H](C)[C@@H](O)[C@H](OC4CCC(N(C)C)C(C)O4)[C@@H](O)[C@](C)(O)CCCCC/C=C/[C@@H]4CC(C)(C)O[C@@]4(O)C[C@H](O2)[C@H]3C)O1` (some centres undefined), the TGI in assay [1] came out at 37.2 µM; in assay [2], 36.8 µM; in assay [3], 46.8 µM; in assay [4], 34.1 µM; in assay [5], 25.7 µM; in assay [6], 15.5 µM. Moreover, the TGI in assay [7] stood at 24.1 µM; in [8] it was 25.5 µM; in assay [9], 21.8 µM; in assay [10], 18.1 µM.

Regarding `Cc1noc(C)c1-c1cnc2c(-c3ccc(C(=O)O)cc3)cn([C@@H](C)c3ccccn3)c2c1`, the GI50 in [1] was 0.212 µM; in assay [2], 3.38 µM; in assay [3], 6.07 µM; in [4], 0.518 µM; in assay [5], 0.772 µM; in assay [6] it was 0.635 µM. The GI50 in [7] is 22.6 µM; in [8] it was 0.959 µM; in assay [9], 0.0954 µM; in assay [10] it was 0.102 µM. The TGI in [1], in assay [2], in [3], in assay [4], in assay [5] and in [6] was > 100 µM throughout. Moreover, the TGI in assay [7] is > 100 µM; in [8], 32.1 µM; in assay [9] it was 20.2 µM; in [10] it was > 55 µM.

With `O=C(O)Cn1ccc2ccccc21`, the TGI in assay [1], in assay [2], in assay [3], in assay [4], in assay [5] and in [6] was > 100 µM throughout. The TGI in assay [7], in [8], in assay [9] and in assay [10] was > 100 µM each time. Further, the GI50 in assay [2], in assay [3], in assay [4], in assay [5], in [6] and in [7] was > 100 µM each time. Moreover, the GI50 in assay [8], in assay [9] and in assay [10] was > 100 µM in each case.

For the molecule `Cc1c(C)c2c(c(C)c1OCC(=O)O)CC[C@@](C)(CCC[C@@H](C)CCC[C@@H](C)CCCC(C)C)O2`, the GI50 is 58.6 µM in [1]; 52.7 µM in assay [2]; 55.3 µM in [3]; 95.2 µM in [4]; 59.6 µM in assay [5]; 66.5 µM in assay [6]. Also, the GI50 in assay [7] was 75.7 µM; in assay [8], 77.3 µM; in assay [9], 61.1 µM; in assay [10], 84.1 µM. Also, the TGI in assay [1] was determined as 137 µM; in assay [2] it was 133 µM; in assay [3] it was 168 µM; in [4], 218 µM; in [5], 136 µM; in assay [6], 130 µM. For the same molecule, the TGI in assay [7] amounted to 147 µM; in assay [8] it was 154 µM; in [9], 126 µM; in assay [10], 152 µM.

Consider `O=C(/C=C\n1cnc(-c2cc(C(F)(F)F)cc(C(F)(F)F)c2)n1)N1CC(F)(F)C1`, for which the GI50 in assay [1] is 0.0288 µM; in [2], 0.248 µM; in assay [3] it was 0.207 µM; in assay [4], 0.305 µM; in [5], 0.224 µM; in assay [6] it was 1.14 µM. The GI50 in assay [7] was 1.69 µM; in [8], 0.332 µM; in assay [9], 1.17 µM; in [10], 0.422 µM. In addition, the TGI in assay [1] was 4.37 µM; in [2] it was 3.66 µM; in assay [3] it was 3.07 µM; in assay [4], 4.52 µM; in [5] it was 4.13 µM; in [6] it was 5.84 µM. The TGI is 12.1 µM in [7], 3.03 µM in assay [8], 9.2 µM in [9] and > 25 µM in assay [10].

On to `CN1CCN(CCCOc2cccc3nc(Nc4ccc(F)c(F)c4)ccc23)CC1`, for which the GI50 was 1.43 µM in assay [1]; 2.68 µM in assay [2]; 2.37 µM in assay [3]; 0.937 µM in assay [4]; 6.42 µM in assay [5]; 1.44 µM in assay [6]. Further, the GI50 was 4.32 µM in assay [7], 4.58 µM in assay [8], 0.695 µM in assay [9] and 4.34 µM in [10]. The TGI in assay [1] turned out to be 5.74 µM; in assay [2], 7.2 µM; in assay [3] it was 8.9 µM; in [4], 3.38 µM; in assay [5], 15.2 µM; in assay [6], 6.05 µM. In addition, the TGI in assay [7] came to 8.67 µM; in [8], 9.51 µM; in assay [9] it was 1.6 µM; in [10], 9.01 µM.

In the case of `CNCCCNc1c2ccccc2nc2cccc([N+](=O)[O-])c12`, the TGI in assay [1] is 0.00423 µM; in assay [2], 0.0519 µM; in [3], 0.00221 µM and 0.0103 µM; in assay [4], 0.00522 µM; in assay [5] it was 0.00543 µM; in assay [6] it was 0.00997 µM. Besides, the TGI in [7] is 0.0192 µM; in assay [8] it was 0.0149 µM; in [9], 0.00942 µM; in assay [10] it was 0.0241 µM and 0.0682 µM. For the same molecule, the GI50 in assay [10] is 0.0158 µM.

With `CC(=O)O[C@H](C[C@H](C(C)C)N(C)C(=O)[C@@H](NC(=O)[C@H]1CCCCN1C)C(C)C)c1cccc(C(=O)N[C@@H](Cc2ccccc2)C[C@H](C)C(=O)O)n1`, the GI50 in assay [1] was 0.0183 µM; in assay [2] it was 0.0353 µM; in assay [3], 0.0297 µM; in assay [4] it was 0.0332 µM; in assay [5], 0.107 µM; in [6] it was 0.0164 µM. For the same molecule, the GI50 in assay [7] is 0.0263 µM; in [8], 0.00707 µM; in assay [9] it was 0.0276 µM; in assay [10], 0.33 µM. The TGI is > 25 µM in [1]; > 25 µM in assay [2]; > 13.4 µM in assay [3]; 10.1 µM in [4]; > 25 µM in assay [5]; > 25 µM in [6]. Besides, the TGI is 1.49 µM in assay [7], > 25 µM in assay [9] and > 25 µM in assay [10].

Consider `CC(C)=C1CCC(CN2CCOCC2)C1=O` (centres undefined), for which the TGI in [1] worked out at 8.81 µM; in [2], 48.9 µM; in [3], 59 µM; in assay [4], 31.5 µM; in assay [5] it was 15.6 µM; in [6] it was 7 µM. For the same molecule, the TGI in [7] stood at 30.4 µM; in assay [8], 18.4 µM; in assay [9], 33 µM; in assay [10], 32.6 µM.

Consider `COc1ccc2nc3cccc([N+](=O)[O-])c3c(NCCNCCN(C)C)c2c1`, for which the GI50 in assay [1] is 0.0588 µM; in [2] it was 0.0376 µM; in assay [3], 0.0253 µM; in assay [4] it was 0.658 µM; in assay [5] it was 0.0199 µM; in assay [6], 0.205 µM. Also, the GI50 is 0.0374 µM in assay [7], 0.0992 µM in [8], 0.121 µM in assay [9] and 0.119 µM in assay [10]. In addition, the TGI in [1] worked out at 0.204 µM; in assay [2] it was 0.404 µM; in [3], 0.0967 µM; in assay [4], 4.17 µM; in [5], 0.0509 µM; in assay [6] it was 0.538 µM. Further, the TGI is 0.909 µM in assay [7], 0.308 µM in [8], 0.3 µM in [9] and 0.377 µM in [10].

In the case of `C[C@H](NC(=O)c1c(C(F)F)nn(C)c1Oc1cccc(C(F)(F)F)c1)c1ccc(C(=O)O)cc1`, the GI50 is 6.94 µM in assay [1]; > 100 µM in assay [2]; > 100 µM in assay [3]; > 100 µM in [4]; > 100 µM in assay [5]; > 100 µM in assay [6]. Also, the GI50 in [7], in assay [8], in assay [9] and in assay [10] was > 100 µM in each case. Also, the TGI in assay [1], in [2], in [3], in assay [4], in assay [5] and in [6] was > 100 µM in each case. Further, the TGI in [7], in assay [8], in assay [9] and in [10] was > 100 µM each time.

For `CCOC(=O)C#Cc1c(C(=O)OCC)nnn1[C@@H]1O[C@H](CO)[C@H]2OC3(CCCCC3)O[C@H]21`, the GI50 in [1] is 2.23 µM; in assay [2] it was 11.2 µM; in assay [3], 13.4 µM; in assay [4] it was 2.97 µM; in assay [5], 2.04 µM; in [6], 1.87 µM. The GI50 in assay [7] was 3.89 µM; in assay [8], 1.7 µM; in assay [9] it was 2.02 µM; in [10], 1.67 µM. The TGI stood at 5.27 µM in assay [1]; 23.2 µM in assay [2]; 28.9 µM in assay [3]; 8.79 µM in assay [4]; 4.48 µM in assay [5]; 3.76 µM in assay [6]. The TGI worked out at 13.6 µM in [7], 3.21 µM in [8], 4.55 µM in assay [9] and 3.28 µM in assay [10].
